Measured values as given in the NIST ThermoML archive (doi:10.1021/je900515a).
Numbers after ± are expanded uncertainties.

Assays:
[1] = Liquid, Pycnometric method
[2] = molar heat capacity at constant pressure; settings: Liquid, Thermal relaxation method

C=C(F)C(F)(F)F [2,3,3,3-tetrafluoro-1-propene]
Settings | mass density, [1] [kg/m3] | molar heat capacity at constant pressure, [2] [J/K/mol]
310 K, 1000 kPa | 1046.5 ± 4.2 | –
310 K, 2000 kPa | 1056.3 ± 4.2 | 165.36 ± 8
310 K, 3000 kPa | 1065.2 ± 4.3 | 161.94 ± 8
310 K, 4000 kPa | 1072.8 ± 4.3 | 152.82 ± 8
310 K, 5000 kPa | 1080.6 ± 4.3 | 153.96 ± 8
320 K, 2000 kPa | 1013.8 ± 4.1 | 173.34 ± 9.1
320 K, 3000 kPa | 1025.1 ± 4.1 | 167.64 ± 8
320 K, 4000 kPa | 1035.3 ± 4.2 | 160.8 ± 8
320 K, 5000 kPa | 1044.8 ± 4.2 | 157.38 ± 8
330 K, 2000 kPa | 964.2 ± 3.9 | 185.89 ± 9.1
330 K, 3000 kPa | 979.2 ± 3.9 | 179.05 ± 9.1
330 K, 4000 kPa | 992.7 ± 4 | 168.78 ± 8
330 K, 5000 kPa | 1004.6 ± 4 | 163.08 ± 8
340 K, 2000 kPa | 903 ± 3.6 | 205.27 ± 10
340 K, 3000 kPa | 926.7 ± 3.7 | 187.03 ± 9.1
340 K, 4000 kPa | 945.3 ± 3.8 | 177.9 ± 9.1
340 K, 5000 kPa | 961.3 ± 3.9 | 169.92 ± 8
350 K, 3000 kPa | 861.8 ± 3.5 | 217.82 ± 11
350 K, 4000 kPa | 891.3 ± 3.6 | 196.15 ± 10
350 K, 5000 kPa | 913.1 ± 3.7 | 182.47 ± 9.1
360 K, 3000 kPa | 751.9 ± 3.1 | 297.65 ± 15
360 K, 4000 kPa | 818.5 ± 3.3 | 222.38 ± 11
360 K, 5000 kPa | 853.9 ± 3.4 | 197.29 ± 10
